Assay results reported in article PMC9658513, “Discovery of Compounds That Selectively Repress the Amyloidogenic Processing of the Amyloid Precursor Protein: Design, Synthesis and Pharmacological Evaluation of Diphenylpyrazoles” (International Journal of Molecular Sciences, 2022).
Read-outs that look alike come from different tables or passages of the source.

Key:
[1] = test system: LC3; experiment: Autophagic flux: LC3-I lipidation into LC3-II by Western blot; type: cell-based; details: Homo sapiens, 24 h, 0.1 µM (100 nM), SY5Y-APP^wt cells, vs control
Source text: (§1) Previous work dedicated to compounds of family C [22] has underlined the effect of our compounds on autophagic flux and the lysosomal degradation pathways. More precisely, the role of the amino side chains and their number was highlighted. Therefore, we assessed whether the activity of compounds involved the modulation of lysosomal activities toward the accumulation of APP-CTFs and AICD. Thus, we studied the effect of a selection of compounds on the autophagic flux, more particularly, we evaluated the effect of compounds 24, 33, 34, 57, 65, 67, 70, and 71 on two markers associated with autophagy: p62 and LC3-I lipidation into LC3-II. To the previous selection of efficient compounds decreasing Aβ1–x production and increasing CTFα and AICD, we added compound 65 with no cytotoxicity at 100 µM. As a comparison, we also selected compound 57 with a hydroxymethyl substituent as a control. In addition to CQ, bafilomycin A, a well-known inhibitor of autophagic flux, was used as a control. Treatment with compounds 67 and 71 induced an increase in p62 expression by 2.5 and 4-fold, respectively, compared to the control condition (Figure 3). […] An increase in the two markers was also observed with compound 57, but to a smaller extent (1.7-fold for p62 and 2-fold for LC3-I/LC3-II).
(§2) The human neuroblastoma cell line SY5Y-APP^695WT was maintained in Dulbecco’s modified Eagle medium (DMEM, high glucose, pyruvate—GIBCO, Life Technologies, Carlsbad, CA, USA) supplemented with 10% fetal bovine serum, 2 mM L-glutamine, 1 mM non-essential amino acids and penicillin/streptomycin (GIBCO, Life Technologies, Carlsbad, CA, USA) at 37 °C in a 5% CO2 humidified incubator [36]. For compound treatment, a 10 mM stock solution was diluted in freshly supplemented DMEM medium to obtain the precise final concentration of the drug. Cells were plated at a density of 5 × 10^5 cells per well into 12-well plates and cultured with 1 mL supplemented DMEM cell medium for 24 h before compound exposure. The following day, the cell medium was replaced with fresh medium containing the compounds diluted at the indicated concentrations. Cells were treated for 24 h. At the end of the treatments, the cell medium was collected and kept at −80 °C until use, cells were rinsed once with PBS and extracted in 100 µL of Laemmli buffer (10 mM Tris, 20% glycerol, and 2% sodium dodecyl sulfate) using a cell-scraper. The cell lysate was further sonicated (30 pulses of 0.5 s, 60 Hz) for 5 min. Total protein concentration was determined using the Pierce BCA Protein Assay Kit (Thermo Scientific, Waltham, MA, USA) according to the manufacturer’s instructions. Samples were stored at −80 °C until analysis.
(§3) Cell protein lysates were prepared for Western blot analysis by diluting the sample with 1 volume of NuPAGE® lithium dodecyl sulfate (LDS) 2X sample buffer supplemented with 20% NuPAGE® sample reducing agents (Invitrogen). Samples were heated for 10 min at 100 °C. Ten µg of total proteins per well were loaded onto precast 4–12% Criterion XT Bis-Tris polyacrylamide gels (Bio-Rad) and electrophoresis was achieved after applying a tension of 150 V for 90 min using a Criterion electrophoresis cell with the NuPAGE® MOPS SDS running buffer (1X). Proteins were transferred to a nitrocellulose membrane of […] pore size (G&E Healthcare, Madison, WI, USA) using the Criterion blotting system and applying a tension of 100 V for 45 min. To resolve proteins of low molecular weights such as carboxy-terminal fragments of APP, 12% Criterion XT Bis-Tris polyacrylamide gels (Bio-Rad, Hercules, CA, USA) were used, and electrophoresis was performed for 70 min at 150 V in a NuPAGE® MES SDS running buffer (1X). Proteins were transferred to a nitrocellulose membrane of 0.2 µm pore size (G&E Healthcare, Madison, WI, USA) at 100 V for 40 min. Molecular weight calibration was achieved using molecular weight markers (Novex and Magic Marks, Life Technologies, Carlsbad, CA, USA). […]

[2] = test system: p62; experiment: Autophagic flux: p62 expression by Western blot; type: cell-based, human; details: Homo sapiens, 24 h, 0.1 µM (100 nM), SY5Y-APP^wt cells, vs control
Source text: as §1, §2, §3

[3] = test system: p62/LC3; experiment: Ratio between p62 and LC3 expression levels; type: cell-based, human; details: 24 h, SY5Y-APP^wt cells
Source text: Compounds from both series were selected to first determine the potential relationship between the repression of Aβ1–x production and the increased expression of LC3 and p62. […] We then also considered the ratio between the p62 and LC3 expression levels.
Figure 3 Effect of compounds 24, 33, 34, 57, 65, 67, 70, and 71 on the autophagic flux in SY5Y-APP^wt cells. […] Cell lysates were immunolabeled with the following antibodies: p62 (a), LC3 (b), and β-actin. Statistical significance was set at * p < 0.05, ** p < […], *[…], **** p < 0.0001, and ns as not significant.

[4] = test system: Aβ1–40 peptide secretion; experiment: Aβ1–40 secretion in cell medium by ELISA; type: cell-based, human; details: SY5Y-APP^WT cells, 24 h treatment, mean ± SD of at least three experiments in triplicate, read-out: Aβ1–40 IC50
Description: (§4) The final and selected intermediate compounds were evaluated for their ability to modulate APP processing in the SH-SY5Y human neuroblastoma cell line stably expressing the neuronal isoform of human wild-type APP^695 (SY5Y-APP^WT), a well-established model for the study of APP metabolism. APP carboxy-terminal fragments (αCTFs and AICD) levels were assessed by Western blotting (WB). The effect of the reference and test compounds on αCTFs and AICD is expressed as the intensity of corresponding WB bands. The concentration of compounds able to increase 20-times αCTFs and AICD (C20) when compared to the control condition was calculated. Selected compounds were also evaluated for their ability to modulate the secretion of soluble APP fragments (sAPPα and sAPPβ). Aβ1–x levels (Aβ1–40 and Aβ1–42) after treatment with the reference and tested compounds were measured in the cell media by ELISA (Table 1). […] Selected hit compounds were then further evaluated for their ability to decrease the level of N-truncated Aβ peptides (Aβx–38, Aβx–40, and Aβx–42).
as §2
(§5) Conditioned media of SY5Y-APP^695WT collected at the end of treatments were centrifuged at 1000× g for 5 min to eliminate cell debris.
(§6) Aβ1–40/Aβ1–42 peptides, Aβx–38/Aβx–40/Aβx–42, and sAPPα/sAPPβ concentrations in pg/mL were determined, respectively, using amyloid-beta 40 and 42 Human ELISA Kits (Invitrogen), the V-PLEX Plus Aβ Peptide Panel 1 (4G8) Kit (Meso Scale Diagnostics, MSD R©, Rockville, MD, USA), and the sAPPα/sAPPβ Multiplex Kit (Meso Scale Diagnostics, MSD R©, Rockville, MD, USA) according to the manufacturer’s instructions.

[5] = test system: Aβ1–42 peptide secretion; experiment: Aβ1–42 secretion in cell medium by ELISA; type: cell-based, human; details: SY5Y-APP^WT cells, 24 h treatment, mean ± SD of at least three experiments in triplicate
Description: as §4, §2, §5, §6

[6] = test system: αCTF (APP carboxy-terminal fragment); experiment: αCTF level by Western blotting in SY5Y-APP^WT cells; type: cell-based, human; details: concentration increasing αCTF 20-fold vs untreated control, SY5Y-APP^WT cells, read-out: αCTF (C20)
Description: as §4, §2
as §3, with “USA). Protein transfer and quality were determined by a reversible Ponceau Red coloration (0.2% xylidine Ponceau Red and 3% trichloroacetic acid).” for “USA).”

[7] = test system: AICD (APP intracellular domain); experiment: AICD level by Western blotting in SY5Y-APP^WT cells; type: cell-based, human; details: concentration increasing AICD 20-fold vs untreated control, read-out: AICD (C20)
Description: as §4, §2
as §3, with “USA). Protein transfer and quality were determined by a reversible Ponceau Red coloration (0.2% xylidine Ponceau Red and 3% trichloroacetic acid).” for “USA).”

[8] = in vitro; type: cell-based, human; details: human
Description: (§7) Cytotoxicity was measured using 3-(4,5-dimethylthiazol-2-yl)-5-(3-carboxymethoxyphenyl)-2-(4-sulfophenyl)-2H-tetrazolium (MTS) tests. SY5Y-APP^695WT cells were plated in a 96-well plate at 3 × 10^4 cells per well and allowed to attach for 24 h. Cells were then incubated for 72 h with 100 µL of DMEM with 10% SVF containing (or not) the defined concentration of drugs. Cytotoxicity was determined by using the colorimetric MTS assay (Cell Titer 96® Aqueous One Solution Cell Proliferation Assay-MTS Promega, Madison, WI, USA) according to the manufacturer’s instructions. Absorbance was read at 490 nm.

[9] = test system: SY5Y-APP^695WT cells; experiment: in vitro; type: cell-based, human
Description: as §7

Row | Compound | IC50 ([4]; Homo sapiens) [µM] | IC50 ([5]; Homo sapiens) [µM] | EC (20-fold increase) ([6]; Homo sapiens) [µM] | EC (20-fold increase) ([7]; Homo sapiens) [µM] | CC50 at 72 h [8] [µM] | IC50 [4] [µM] | IC50 [5] [µM] | EC (20-fold increase) [6] [µM] | EC (20-fold increase) [7] [µM] | CC50 [9] [µM] | also measured
1 | CO/C1=C\C(C)=C\[C@@H](C)[C@@H](O)[C@@H](C)C/C(C)=C/C=C/[C@H](OC)[C@@H]([C@@H](C)[C@@H](O)[C@H](C)[C@@]2(O)C[C@@H](O)[C@H](C)[C@@H](C(C)C)O2)OC1=O [Baf A1, bafilomycin A1, reference compound] |  |  |  |  |  |  |  |  |  |  | fold induction at 0.1 µM [1]: 4.68; fold induction at 0.1 µM [2]: 1.48; p62/LC3 ([3]; 0.1 µM (100 nM)): 0.31
2 | Cc1cn(-c2cccc(CN(C)CCCN(C)C)c2)nc1-c1cccc(CN(C)C)c1 [Compound 66, N′-[[3-[3-[3-(Dimethylaminomethyl)phenyl]-4-methyl-pyrazol-1-yl]phenyl]methyl]-N,N,N’-trimethyl-propane-1,3-diamine] | 2.2 ± 0.3 | 2.5 ± 1 | 2.2 | 2.4 | 47 |  |  |  |  |  | 
3 | Cc1cn(-c2cccc(CN3CCN(C)CC3)c2)nc1-c1ccc(CN(C)CCCN(C)C)cc1 [Compound 68, [3-(Dimethylamino)propyl](methyl){[4-(4-methyl-1-{3-[(4-methylpiperazin-1-yl)methyl]phenyl}-1H-pyrazol-3-yl)phenyl]methyl}amine] | 1.2 ± 0.1 | 1.6 ± 0.1 | 1 | 1 | 6 |  |  |  |  |  | 
4 | Cc1cn(-c2cccc(CN(C)CCCN(C)C)c2)nc1-c1cccc(CN(C)CCCN(C)C)c1 [Compound 72, N′-[[3-[1-[3-[[3-(Dimethylamino)propyl-methyl-amino]methyl]phenyl]-4-methyl-pyrazol-3-yl]phenyl]methyl]-N,N,N′-trimethyl-propane-1,3-diamine] | 2.6 ± 0.2 | 3.3 ± 0.1 | 0.6 | 0.8 | 26 |  |  |  |  |  | 
5 | N′-[[3-[4-[3-(Dimethylamino)propyl]-3-[4-[3-(dimethylamino)propyl]phenyl] Pyrazol-1-yl]phenyl]methyl]-N,N,N′-trimethyl-propane-1,3-diamine [Compound 35] |  |  |  |  |  | 12.4 ± 0.6 | 13.2 ± 0.2 | 5.1 | 5.4 | > 100 | p62/LC3 ([3]; compound at 3 µM): ~1
6 | N′-[[4-[4-(Dimethylaminomethyl)-3-[4-[3-(dimethylamino)propyl]phenyl] Pyrazol-1-yl]phenyl]methyl]-N,N,N′-trimethyl-propane-1,3-diamine [Compound 32] |  |  |  |  |  | 4.2 ± 0.1 | 6.1 ± 0.3 | 1.1 | 1.8 | > 100 | 
